The text below walks through data of patent US7332317B2, “Phosphodiesterase and genes thereof” (Tanabe Seiyaku Co., Ltd., priority 1999, dated 2008).

Several values for one entry are separate records, joined by “and”; a condition that tells them apart may be missing. Equal entries are not always repeated. Where two headings read alike, the source gives them in different places.

Assay [1] addresses T1, human PDE11A2 (Homo sapiens, UniProt Q9HCR9, DUP921-921). In words: Inhibition of human PDE11A2 activity by known PDE inhibitors (radio-labeled nucleotide method).
Protocol: (§1) Incidentally, measurement of PDE activity was done according to a radio-labeled nucleotide method. […] After carrying out a reaction by keeping a temperature at 37° C. for 30 minutes, reaction was terminated by boiling the reaction mixture for 2 minutes, and 100 μl of 1 mg/ml of snake venom (Crotalus atrox snake venom) was further added thereto and the temperature was kept at 37° C. for 30 minutes. Subsequently, 500 μl of methanol was added thereto, and the reaction mixture was applied to Dowex column (1×8-400). Scintillation cocktail was added to each of the eluates, and radioactivity was measured.
Assay [2] has as its target T2, human PDE11A1 (Homo sapiens, UniProt Q9HCR9, DUP921-921/R184Q). The experiment in a line: Inhibition of human PDE11A1 activity by known PDE inhibitors (radio-labeled nucleotide method).
Protocol: as §1
The target in assay [3] is T1, human PDE11A2. In words: Kinetic analysis of cAMP/cGMP hydrolysis by human PDE11A2 (Lineweaver-Burk plot). It is filed as biochemical. Also noted: inserted into a BamHI-XhoI site of an expression vector, pHis, to obtain a vector plasmid pHis-PDE11T for PDE11A2 expression; made in house; host or cells: COS-7 cells. Conditions: labelled substance as substrate, 0.1 to 10 μM.

Assay [4] concerns the target T2, human PDE11A1. The experiment in a line: Kinetic analysis of cAMP/cGMP hydrolysis by human PDE11A1 (Lineweaver-Burk plot). It is filed as biochemical. On the set-up: inserted into a BamHI-XhoI site of an expression vector, pcDNA4/HisMaxC; made in house; host or cells: COS-7 cells. Conditions: labelled substance as substrate, 0.1 to 10 μM.
The subject of assay [5] is human PDE11. The experiment in a line: Influence of cGMP on cAMP hydrolysis activity and of cAMP on cGMP hydrolysis activity. The settings on record: 3.5 μM unlabeled cAMP; 0.01-100 μM cGMP added; PDE11A1 and PDE11A2, FIG. 3. It is filed as biochemical.
Where [6] appears, read: read-out: IC50 value for human PDE11A2 activity, effect on cGMP hydrolysis activity, substrate 1.3 μM unlabeled cGMP, inhibitor 0-100 μM, recombinant enzyme from COS-7 cells.
Where [7] appears, read: read-out: IC50 value for human PDE11A1 activity, effect on cGMP hydrolysis activity, substrate 1.3 μM unlabeled cGMP, inhibitor 0-100 μM, recombinant enzyme from COS-7 cells.

T1 sequence (Q9HCR9 with tags, fused parts or gaps isoform Q9HCR9-2 DUP671-671): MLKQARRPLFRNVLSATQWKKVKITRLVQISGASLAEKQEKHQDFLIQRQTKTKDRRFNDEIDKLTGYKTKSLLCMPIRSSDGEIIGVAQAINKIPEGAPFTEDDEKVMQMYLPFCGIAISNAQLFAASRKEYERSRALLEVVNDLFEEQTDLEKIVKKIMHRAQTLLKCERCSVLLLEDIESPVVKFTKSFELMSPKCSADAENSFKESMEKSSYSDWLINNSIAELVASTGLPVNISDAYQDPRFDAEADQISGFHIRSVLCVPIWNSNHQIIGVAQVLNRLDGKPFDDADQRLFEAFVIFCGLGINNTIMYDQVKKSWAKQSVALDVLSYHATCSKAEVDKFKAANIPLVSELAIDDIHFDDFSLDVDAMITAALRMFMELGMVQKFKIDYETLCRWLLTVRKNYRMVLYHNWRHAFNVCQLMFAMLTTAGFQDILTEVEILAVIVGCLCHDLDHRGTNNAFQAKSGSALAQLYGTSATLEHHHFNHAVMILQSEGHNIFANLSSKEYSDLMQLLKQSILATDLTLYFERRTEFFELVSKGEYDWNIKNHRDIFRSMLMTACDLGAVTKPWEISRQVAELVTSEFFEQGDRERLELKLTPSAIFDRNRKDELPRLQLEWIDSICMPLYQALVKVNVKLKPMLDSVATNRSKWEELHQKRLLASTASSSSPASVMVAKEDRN
T2 sequence (Q9HCR9 with tags, fused parts or gaps R184Q/DUP921-921): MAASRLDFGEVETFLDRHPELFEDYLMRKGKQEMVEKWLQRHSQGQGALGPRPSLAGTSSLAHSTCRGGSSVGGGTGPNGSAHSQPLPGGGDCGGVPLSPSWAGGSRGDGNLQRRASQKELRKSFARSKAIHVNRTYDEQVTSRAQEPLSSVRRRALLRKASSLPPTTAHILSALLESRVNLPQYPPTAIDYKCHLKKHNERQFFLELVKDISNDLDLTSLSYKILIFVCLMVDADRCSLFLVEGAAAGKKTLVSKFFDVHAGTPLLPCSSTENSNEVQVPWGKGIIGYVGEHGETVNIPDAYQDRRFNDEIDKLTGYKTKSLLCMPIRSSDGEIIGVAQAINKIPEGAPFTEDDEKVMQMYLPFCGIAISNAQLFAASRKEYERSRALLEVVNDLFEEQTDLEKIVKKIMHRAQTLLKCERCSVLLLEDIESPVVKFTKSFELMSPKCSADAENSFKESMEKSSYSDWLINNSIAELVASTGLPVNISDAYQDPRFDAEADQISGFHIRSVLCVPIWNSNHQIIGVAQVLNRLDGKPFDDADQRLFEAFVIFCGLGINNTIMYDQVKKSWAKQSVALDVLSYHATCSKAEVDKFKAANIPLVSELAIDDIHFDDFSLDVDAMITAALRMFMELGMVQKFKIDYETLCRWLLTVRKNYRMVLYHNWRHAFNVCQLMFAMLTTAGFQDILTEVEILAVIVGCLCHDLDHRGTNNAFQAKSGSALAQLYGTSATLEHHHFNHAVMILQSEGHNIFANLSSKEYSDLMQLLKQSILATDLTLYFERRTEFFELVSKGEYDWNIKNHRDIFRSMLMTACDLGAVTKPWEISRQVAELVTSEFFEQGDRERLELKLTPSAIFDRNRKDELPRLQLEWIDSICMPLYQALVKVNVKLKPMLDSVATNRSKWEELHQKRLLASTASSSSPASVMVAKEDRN

Usually IC50 stands for the concentration that inhibits the measured activity by half. For the molecule `CN1C(=O)c2[nH]c(Cc3ccc(C(F)(F)F)cc3)nc2N2C1=N[C@@H]1CCC[C@@H]12` (single isomer, unassigned) [SCH51866, (+)-cis-5-methyl-2-[4-(trifluoromethyl)benzyl]-3,4,5,6a,7,8,9,9a-octahydrocyclopent[4,5]imidazo-[2,1-b]purin-4-one], the IC50 was 11 µM and 8.6 µM in assay [1]; 22 µM and 25 µM in assay [2].
For the molecule `O=C(O)C1CCN(c2nc(NCc3ccc4c(c3)OCO4)c3cc(Cl)ccc3n2)CC1` [E4021, sodium 1-[6-chloro-4-(3,4-methylenedioxybenzyl)aminoquinazolin-2-yl]pyperidine-4-carboxylate], the IC50 in assay [1] was 0.88 µM and 0.66 µM; in assay [2] it was 1.8 ± 0.33 µM.
Regarding `CC(C)Cn1c(=O)n(C)c(=O)c2[nH]cnc21` [IBMX, 3-isobutyl-1-methylxanthine], the IC50 in assay [1] was 30 µM and 38 µM; in assay [2], 65 µM and 81 µM.
In the case of `Cc1[nH]c(=O)c(C#N)cc1-c1ccncc1` [Milrinone], the IC50 in assay [1], in assay [1] (setting [6]), in assay [2] and in assay [2] (setting [7]) was more than 100 µM throughout.
With `COc1ccc(C2CNC(=O)C2)cc1OC1CCCC1` (centres unmarked) [Rolipram], the IC50 in assay [1], in assay [1] (setting [6]), in assay [2] and in assay [2] (setting [7]) was more than 100 µM each time.
As for `CCOC(=O)C1=C[C@]2(CC)CCCN3CCc4c(n1c1ccccc41)[C@@H]32` [Vinpocetine], the IC50 in assay [1] was 49 µM and 68 µM; in assay [2], more than 100 µM; in assay [2] (setting [7]) it was more than 100 µM.
As for `Nc1ncnc2c1ncn2[C@@H]1O[C@@H]2COP(=O)(O)O[C@H]2[C@H]1O` [cAMP], in assay [3], the “Vmax of human PDE11A2” value is recorded as 9.63±1.88 pmol/min/μg protein.
In general, Km refers to the concentration of substrate that gives half-maximal velocity. Turning to `Nc1nc2c(ncn2[C@@H]2O[C@@H]3COP(=O)(O)O[C@H]3[C@H]2O)c(=O)[nH]1` [cGMP], in assay [3], the Michaelis constant (Km) stood at 1.47 ± 0.115 µM and the “Vmax of human PDE11A2” value is reported as 4.02±0.214 pmol/min/μg protein. Moreover, in assay [4], the Km stood at 1.43 ± 0.109 µM and the “Vmax of human PDE11A1” value was 121±8.08 pmol/min/μg of protein. Further, the “cAMP hydrolysis activity (relative value %) on addition of cGMP” value in assay [5] was “lowered depending on a concentration of cGMP added”.
